*1 amine or outer side, *2 acyl side, *3 side chain or, on linkers, in order; H or OH if unused. Where a SMILES comes first, the peptide text is derived from it. Side-chain parts run from the residue outwards. [ ]: non-standard residue; d: D form. The star is where a group is joined. Phe(4-NH2) = Nc1ccc(C[C@H](N)C(=O)O)cc1; γGlu = O=C(O)[C@H](CCC(=O)[*:2])N[*:1]; Palmitoyl = CCCCCCCCCCCCCCCC(=O)*; Aib = CC(C)(N)C(=O)O
Legend:
[1] = molecular target: T1, GLP-1 receptor (Homo sapiens, UniProt P43220); experiment: cAMP induction, firefly luciferase reporter assay in HEK293 cells co-transfected with GLP-1 receptor; type: cell-based; conditions: EC50 (nM) at GLP-1 Receptor
T1 construct: expressed in transfected cells; host or cells: HEK293
T1 sequence (P43220 24-463): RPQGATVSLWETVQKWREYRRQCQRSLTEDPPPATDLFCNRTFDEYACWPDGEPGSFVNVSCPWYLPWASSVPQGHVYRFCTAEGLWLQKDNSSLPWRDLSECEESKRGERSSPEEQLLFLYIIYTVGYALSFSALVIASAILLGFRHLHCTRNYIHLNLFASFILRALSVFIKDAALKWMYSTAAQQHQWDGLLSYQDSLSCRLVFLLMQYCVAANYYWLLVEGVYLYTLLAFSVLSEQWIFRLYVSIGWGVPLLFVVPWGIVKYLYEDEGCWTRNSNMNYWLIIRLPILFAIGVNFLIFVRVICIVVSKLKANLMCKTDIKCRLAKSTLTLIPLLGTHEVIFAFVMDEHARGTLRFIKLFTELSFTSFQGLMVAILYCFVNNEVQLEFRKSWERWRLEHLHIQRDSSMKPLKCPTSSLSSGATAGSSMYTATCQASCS
Excerpt: This example describes an exemplary method of testing the biological activity of the peptides of the present disclosures, which method involves assaying cAMP synthesis.

[2] = molecular target: T2, GIP receptor (Homo sapiens, UniProt P48546); experiment: cAMP induction, firefly luciferase reporter assay in HEK293 cells co-transfected with GIP receptor; type: cell-based; conditions: EC50 (nM) at GIP Receptor
T2 sequence (P48546 22-466): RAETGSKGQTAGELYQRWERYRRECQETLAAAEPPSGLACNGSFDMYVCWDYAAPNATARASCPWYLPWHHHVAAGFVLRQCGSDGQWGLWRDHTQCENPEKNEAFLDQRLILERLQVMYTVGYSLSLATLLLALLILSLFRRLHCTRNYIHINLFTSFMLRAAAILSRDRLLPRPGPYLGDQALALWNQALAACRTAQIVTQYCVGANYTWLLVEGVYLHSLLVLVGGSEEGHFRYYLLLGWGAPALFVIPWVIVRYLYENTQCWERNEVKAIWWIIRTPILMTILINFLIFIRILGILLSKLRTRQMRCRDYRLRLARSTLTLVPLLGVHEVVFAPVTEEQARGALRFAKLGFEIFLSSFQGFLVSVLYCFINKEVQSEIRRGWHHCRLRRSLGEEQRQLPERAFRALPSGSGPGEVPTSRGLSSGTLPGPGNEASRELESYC

[3] = Table 4, Example 9, composite of multiple different activity assays

SMILES	EC50 ([1]; Table 9, Example 15) [nM]	EC50 ([2]; Table 9, Example 15) [nM]	further results
CCCCCCCCCCCCCCCCC(CC(=O)NCCCC[C@H](NC(=O)[C@H](CO)NC(=O)[C@@H]1CCCN1C(=O)[C@@H]1CCCN1C(=O)[C@@H]1CCCN1C(=O)[C@H](C)NC(=O)CNC(=O)[C@H](CO)NC(=O)[C@H](CO)NC(=O)[C@@H]1CCCN1C(=O)CNC(=O)CNC(=O)[C@H](C)NC(=O)[C@H](CC(C)C)NC(=O)[C@H](CC(C)C)NC(=O)[C@H](Cc1c[nH]c2ccccc12)NC(=O)[C@H](CC(N)=O)NC(=O)[C@@H](NC(=O)[C@H](Cc1ccccc1)NC(=O)[C@H](CCC(=O)O)NC(=O)C(C)(C)NC(=O)[C@H](C)NC(=O)[C@H](C)NC(=O)[C@H](CCC(N)=O)NC(=O)[C@H](CCCCN)NC(=O)[C@H](CC(=O)O)NC(=O)[C@H](CC(C)C)NC(=O)[C@H](Cc1ccc(O)cc1)NC(=O)[C@@H](NC(=O)[C@H](CO)NC(=O)[C@H](Cc1ccc(O)cc1)NC(=O)[C@H](CC(=O)O)NC(=O)[C@H](CO)NC(=O)[C@@H](NC(=O)[C@H](Cc1ccccc1)NC(=O)[C@@H](NC(=O)CNC(=O)[C@H](CCC(=O)O)NC(=O)C(C)(C)NC(=O)[C@@H](N)Cc1ccc(O)cc1)[C@@H](C)O)[C@@H](C)O)[C@@H](C)CC)C(C)C)C(=O)NCC(N)=O)C(=O)O (some centres unmarked) [SEQ ID NO: 140]	0.001	0.001	
CCCCCCCCCCCCCCCCC(CC(=O)NCCC(=O)NCCCC[C@H](NC(=O)[C@H](CO)NC(=O)[C@@H]1CCCN1C(=O)[C@@H]1CCCN1C(=O)[C@@H]1CCCN1C(=O)[C@H](C)NC(=O)CNC(=O)[C@H](CO)NC(=O)[C@H](CO)NC(=O)[C@@H]1CCCN1C(=O)CNC(=O)CNC(=O)[C@H](C)NC(=O)[C@H](CC(C)C)NC(=O)[C@H](CC(C)C)NC(=O)[C@H](Cc1c[nH]c2ccccc12)NC(=O)[C@H](CC(N)=O)NC(=O)[C@@H](NC(=O)[C@H](Cc1ccccc1)NC(=O)[C@H](CCC(=O)O)NC(=O)C(C)(C)NC(=O)[C@H](C)NC(=O)[C@H](C)NC(=O)[C@H](CCC(N)=O)NC(=O)[C@H](CCCCN)NC(=O)[C@H](CC(=O)O)NC(=O)[C@H](CC(C)C)NC(=O)[C@H](Cc1ccc(O)cc1)NC(=O)[C@@H](NC(=O)[C@H](CO)NC(=O)[C@H](Cc1ccc(O)cc1)NC(=O)[C@H](CC(=O)O)NC(=O)[C@H](CO)NC(=O)[C@@H](NC(=O)[C@H](Cc1ccccc1)NC(=O)[C@@H](NC(=O)CNC(=O)[C@H](CCC(=O)O)NC(=O)C(C)(C)NC(=O)[C@@H](N)Cc1ccc(O)cc1)[C@@H](C)O)[C@@H](C)O)[C@@H](C)CC)C(C)C)C(=O)NCC(N)=O)C(=O)O (some centres unmarked) [SEQ ID NO: 141]	0.001	0.002	
CCCCCCCCCCCCCCCCCCC(CC(=O)NCCCC[C@H](NC(=O)[C@H](CO)NC(=O)[C@@H]1CCCN1C(=O)[C@@H]1CCCN1C(=O)[C@@H]1CCCN1C(=O)[C@H](C)NC(=O)CNC(=O)[C@H](CO)NC(=O)[C@H](CO)NC(=O)[C@@H]1CCCN1C(=O)CNC(=O)CNC(=O)[C@H](C)NC(=O)[C@H](CC(C)C)NC(=O)[C@H](CC(C)C)NC(=O)[C@H](Cc1c[nH]c2ccccc12)NC(=O)[C@H](CC(N)=O)NC(=O)[C@@H](NC(=O)[C@H](Cc1ccccc1)NC(=O)[C@H](CCC(=O)O)NC(=O)C(C)(C)NC(=O)[C@H](C)NC(=O)[C@H](C)NC(=O)[C@H](CCC(N)=O)NC(=O)[C@H](CCCCN)NC(=O)[C@H](CC(=O)O)NC(=O)[C@H](CC(C)C)NC(=O)[C@H](Cc1ccc(O)cc1)NC(=O)[C@@H](NC(=O)[C@H](CO)NC(=O)[C@H](Cc1ccc(O)cc1)NC(=O)[C@H](CC(=O)O)NC(=O)[C@H](CO)NC(=O)[C@@H](NC(=O)[C@H](Cc1ccccc1)NC(=O)[C@@H](NC(=O)CNC(=O)[C@H](CCC(=O)O)NC(=O)C(C)(C)NC(=O)[C@@H](N)Cc1ccc(O)cc1)[C@@H](C)O)[C@@H](C)O)[C@@H](C)CC)C(C)C)C(=O)NCC(N)=O)C(=O)O (some centres unmarked) [SEQ ID NO: 142]	0.004	0.001	
CCCCCCCCCCCCCCCC(=O)N[C@@H](CCC(=O)N[C@@H](CCC(=O)Nc1ccc(C[C@H](NC(=O)[C@H](CC(=O)O)NC(=O)[C@H](CO)NC(=O)[C@@H](NC(=O)[C@H](Cc2ccccc2)NC(=O)[C@@H](NC(=O)CNC(=O)[C@H](CCC(=O)O)NC(=O)C(C)(C)NC(=O)[C@@H](N)Cc2ccc(O)cc2)[C@@H](C)O)[C@@H](C)O)C(=O)N[C@@H](CO)C(=O)N[C@H](C(=O)N[C@@H](Cc2ccc(O)cc2)C(=O)N[C@@H](CC(C)C)C(=O)N[C@@H](CC(=O)O)C(=O)N[C@@H](CCCCN)C(=O)N[C@@H](CCC(N)=O)C(=O)N[C@@H](C)C(=O)N[C@@H](C)C(=O)NC(C)(C)C(=O)N[C@@H](CCC(=O)O)C(=O)N[C@@H](Cc2ccccc2)C(=O)N[C@H](C(=O)N[C@@H](CC(N)=O)C(=O)N[C@@H](Cc2c[nH]c3ccccc23)C(=O)N[C@@H](CC(C)C)C(=O)N[C@@H](CC(C)C)C(=O)N[C@@H](C)C(=O)NCC(=O)NCC(=O)N2CCC[C@H]2C(=O)N[C@@H](CO)C(=O)N[C@@H](CO)C(=O)NCC(=O)N[C@@H](C)C(=O)N2CCC[C@H]2C(=O)N2CCC[C@H]2C(=O)N2CCC[C@H]2C(=O)N[C@@H](CO)C(N)=O)C(C)C)[C@@H](C)CC)cc1)C(=O)O)C(=O)O [SEQ ID NO: 143] (H-Y[Aib]EGTFTSD[Phe(4-NH2)]([γGlu-γGlu-Palmitoyl])SIYLDKQAA[Aib]EFVNWLLAGGPSSGAPPPS-NH2; N-terminus assumed)	0.002	0.003	
CCCCCCCCCCCCCCCC(=O)N[C@@H](CCC(=O)NCCCC[C@H](NC(=O)[C@H](CC(=O)O)NC(=O)[C@H](CO)NC(=O)[C@@H](NC(=O)[C@H](Cc1ccccc1)NC(=O)[C@@H](NC(=O)CNC(=O)[C@H](CCC(=O)O)NC(=O)C(C)(C)NC(=O)[C@@H](N)Cc1c[nH]cn1)[C@@H](C)O)[C@@H](C)O)C(=O)N[C@@H](CO)C(=O)N[C@@H](CCCCN)C(=O)N[C@@H](Cc1ccc(O)cc1)C(=O)N[C@@H](CC(C)C)C(=O)N[C@@H](CC(=O)O)C(=O)N[C@@H](CCC(=O)O)C(=O)N[C@@H](CCCNC(=N)N)C(=O)N[C@@H](CCCNC(=N)N)C(=O)N[C@@H](C)C(=O)NC(C)(C)C(=O)N[C@@H](CCC(=O)O)C(=O)N[C@@H](Cc1ccccc1)C(=O)N[C@H](C(=O)N[C@@H](CCC(N)=O)C(=O)N[C@@H](Cc1c[nH]c2ccccc12)C(=O)N[C@@H](CC(C)C)C(=O)N[C@@H](CC(C)C)C(=O)N[C@@H](CC(=O)O)C(=O)N[C@H](C(N)=O)[C@@H](C)O)C(C)C)C(=O)O [compound 40] (H-H[Aib]EGTFTSDK([γGlu-Palmitoyl])SKYLDERRA[Aib]EFVQWLLDT-NH2; N-terminus assumed)			EC50 [1, 3]: 0.006 nM; EC50 [2, 3]: 0.024 nM
CCCCCCCCCCCCCCCC(=O)N[C@@H](CCC(=O)NCCCC[C@H](NC(=O)[C@H](CC(=O)O)NC(=O)[C@H](CO)NC(=O)[C@@H](NC(=O)[C@H](Cc1ccccc1)NC(=O)[C@@H](NC(=O)CNC(=O)[C@H](CCC(=O)O)NC(=O)C(C)(C)NC(=O)[C@@H](N)Cc1c[nH]cn1)[C@@H](C)O)[C@@H](C)O)C(=O)N[C@@H](CO)C(=O)N[C@@H](CCCCN)C(=O)N[C@@H](Cc1ccc(O)cc1)C(=O)N[C@@H](CC(C)C)C(=O)N[C@@H](CC(=O)O)C(=O)N[C@@H](CCC(=O)O)C(=O)N[C@@H](CCCNC(=N)N)C(=O)N[C@@H](CCCNC(=N)N)C(=O)N[C@@H](C)C(=O)NC(C)(C)C(=O)N[C@@H](CC(=O)O)C(=O)N[C@@H](Cc1ccccc1)C(=O)N[C@H](C(=O)N[C@@H](CCC(N)=O)C(=O)N[C@@H](Cc1c[nH]c2ccccc12)C(=O)N[C@@H](CC(C)C)C(=O)N[C@@H](CC(C)C)C(=O)N[C@@H](CC(=O)O)C(=O)NCC(=O)NCC(=O)N1CCC[C@H]1C(=O)N[C@@H](CO)C(=O)N[C@@H](CO)C(=O)NCC(=O)N[C@@H](C)C(=O)N1CCC[C@H]1C(=O)N1CCC[C@H]1C(=O)N1CCC[C@H]1C(=O)N[C@@H](CO)C(N)=O)C(C)C)C(=O)O [compound 41] (H-H[Aib]EGTFTSDK([γGlu-Palmitoyl])SKYLDERRA[Aib]DFVQWLLDGGPSSGAPPPS-NH2)			EC50 [1, 3]: 0.006 nM; EC50 [2, 3]: 0.013 nM
CC[C@H](C)[C@H](NC(=O)[C@H](CO)NC(=O)[C@H](Cc1ccc(O)cc1)NC(=O)[C@H](CC(=O)O)NC(=O)[C@H](CO)NC(=O)[C@@H](NC(=O)[C@H](Cc1ccccc1)NC(=O)[C@@H](NC(=O)CNC(=O)[C@H](CCC(N)=O)NC(=O)[C@@H](CO)NC(=O)[C@@H](N)Cc1c[nH]cn1)[C@@H](C)O)[C@@H](C)O)C(=O)N[C@@H](Cc1ccc(O)cc1)C(=O)N[C@@H](CC(C)C)C(=O)N[C@@H](CC(=O)O)C(=O)N[C@@H](CCCCN)C(=O)N[C@@H](CCC(N)=O)C(=O)N[C@@H](C)C(=O)N[C@@H](C)C(=O)NC(C)(C)C(=O)N[C@@H](CCC(=O)O)C(=O)N[C@@H](Cc1ccccc1)C(=O)N[C@H](C(=O)N[C@@H](CC(N)=O)C(=O)N[C@@H](Cc1c[nH]c2ccccc12)C(=O)N[C@@H](CC(C)C)C(=O)N[C@@H](CC(C)C)C(=O)N[C@@H](C)C(=O)NCC(=O)NCC(=O)N1CCC[C@H]1C(=O)N[C@@H](CO)C(=O)N[C@@H](CO)C(=O)NCC(=O)N[C@@H](C)C(=O)N1CCC[C@H]1C(=O)N1CCC[C@H]1C(=O)N1CCC[C@H]1C(=O)N[C@@H](CO)C(=O)N[C@@H](CS)C(N)=O)C(C)C [compound 48] (H-H[dS]QGTFTSDYSIYLDKQAA[Aib]EFVNWLLAGGPSSGAPPPSC-NH2; N-terminus assumed)			EC50 ([1]; Table 6, Example 12): 0.01 nM; EC50 ([2]; Table 6, Example 12): 0.433 nM

— patent US9587005B2 (priority 2010, dated 2017)
